Laboratory results published in patent US10829458B2 (Araxes Pharma LLC, priority 2015, dated 2020).

Assays:
Whole blood stability = format: in vitro ADME; details: mouse, whole blood, 37° C., time points 0, 1, 2, 4 hr, LC/MS/MS, read-out: Whole Blood Stability (T1/2) hr. Mouse (converted)
Description: Test compounds were prepared as a 500 μM stock solution in DMSO (Adding 10 μl of 10 mM DMSO stock solution to 190 μl of 100% DMSO). Whole blood was thawed on ice. A whole blood plate was prepared by adding 460 μl of the whole blood (different species as needed) to a 96-well in ml deep well plate. The whole blood plate was preincubated at 37° C. for 10 min. 4 μl of compound solution and 396 μl of whole blood was added to the plate and mixed thoroughly. Each sample was aliquoted (30 μl) to the incubation plate (cluster tubes) and quenched at time zero with ice-cold 100% ACN, and the incubation plates were added to the 37° C. incubator (200 μl).
The time zero sample was maintained at 4° C. until centrifuged. All other samples were quench at different time points (1, 2, 4 hr), vortexed for 30 seconds and centrifuged at 3500 rpm for 15 min at 4° C. 30 μl of supernatant was added to 170 μl 0.1% FA aqueous solution and the sample was analyzes by LC/MS/MS.

[1] = molecular target: T1, KRAS G12C 1-169, his-tagged protein, GDP-loaded (Homo sapiens, UniProt P01116, G12C); test: Biochemical assay: covalent modification of KRAS G12C measured by mass spectrometry (RapidFire/TOF or Q-Exactive); details: covalent binding to KRAS G12C; compounds of structure (III)
T1 construct: KRAS G12C 1-169, his-tagged protein, GDP-loaded
Outline: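 Covalent adduct formation read by intact-mass spectrometry (TOF or Q Exactive Plus, charge envelopes deconvoluted into modified and unmodified species) after formic acid quench. Reactions contained 2 μM GDP-bound KRAS G12C 1-169 (his-tag) in Hepes/NaCl/MgCl2 buffer plus 10, 30 or 100 μM final compound, held 30 min, 2 h or 24 h at room temperature.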

C=CC(=O)N1CCN(c2ncnc3c(F)c(-c4c(O)cccc4F)c(Cl)cc23)C[C@@H]1C [III-20, 1-((2S)-4-(6-chloro-8-fluoro-7-(2-fluoro-6-hydroxy-phenyl)quinazolin-4-yl)-2-methyl-piperazin-1-yl)prop-2-en-1-one]
half-life at 5 µM (Whole blood stability): 10.6 h | Binding % [1]: ++ (++ indicates activity from 50% to 90%)
